According to ChEMBL document CHEMBL6078613, “Cathepsin B: The dawn of tumor therapy” (Eur J Med Chem, 2024):
Where a SMILES comes first, the peptide text is derived from it. The star is where a group is joined. Cbz = O=C(OCc1ccccc1)*; CH2F = FC*

What was measured:
[1] = target: T1, Cathepsin B (Homo sapiens, UniProt P07858); experiment: Inhibition of Cathepsin B (unknown origin)
[2] = target: T1, Cathepsin B; experiment: Inhibition of Cathepsin B (unknown origin) at 10 uM relative to control
[3] = Inhibition of Cathepsin B-like cysteine protease (unknown origin); design: species or system Homo sapiens

COC(=O)CC[C@H](NC(=O)[C@H](Cc1c[nH]c2ccccc12)NC(=O)OCc1ccccc1)C(=O)N[C@@H](Cc1cnc[nH]1)C(=O)N[C@@H](CC(=O)OC)C(=O)CF (Cbz-WE(OMe)HD(OMe)-CH2F)
IC50 [1]: 6 µM

CCOC(=O)[C@H]1O[C@@H]1C(=O)N[C@@H](CC(C)C)C(=O)NCCC(C)C
inhibition [2]: 91%

CC(C)C[C@H](NC(=O)[C@H]1O[C@@H]1C(=O)O)C(=O)NCCCCN=C(N)N [E-64]
IC50 [3]: 0.009 µM
